Assay results as given in patent US20020022617A1, “Methods for increasing nitric oxide synthase activity” (American Home Products Corporation, priority 2000, published 2002).

Tested on: aortic rings of ovariectomized rats
Assay: Basal NO release in isolated aortic rings of treated ovariectomized rats (phenylephrine curves before and after L-NAME)
Type: in vivo, Sprage-Dawley rats
Settings: for response of vessels to L-NAME after washout: 1 mg/kg/day by gastric gavage, 200 μM L-NAME, vehicle treated group had a significantly smaller response; for response of the vessels compared among intact, estradiol and TSE-424 treated groups / difference from vehicle treated group (basal NO release, separation of curves before and after L-NAME): 1 mg/kg/day; for response of the vessels compared among intact, estradiol and TSE-424 treated groups: all phenylephrine concentrations (except 0.01 μM phenylephrine TSE-424 treated group); for difference from vehicle treated group (basal NO release, separation of curves before and after L-NAME): at the 10 and 100 μM phenylephrine concentrations, p<0.05
Description: Sprage-Dawley rats (240-260 grams) were divided into 4 groups: (1) Normal non-ovariectomized (intact); (2) Ovariectomized (ovex) vehicle treated; (3) Ovariectomized 17-β estradiol treated (1 mg/kg/day); and (4) Ovariectomized TSE-424 treated (1 mg/kg/day). All animals were ovariectomized approximately 3 weeks prior to treatment. Each received 1 mg/kg/day of either 17-β estradiol sulfate or TSE-424 suspended in distilled, deionized water with 1% tween-80 by gastric gavage. Vehicle treated animals received an appropriate volume of the vehicle used in the drug treated groups.
Animals were euthanized by CO2 inhalation and exsanguination. Their thoracic aortas were rapidly removed and placed in 37° C. physiological solution with the following composition (mM): NaCl (54.7), KCl (5.0), NaHCO3 (25.0), MgCl2.2H2O (2.5), D-glucose (11.8) and CaCl2 (0.2) gassed with […] for a final pH of 7.4. The advantitia was removed from the outer surface and the vessel was cut into 2-3 mm wide rings. Rings were suspended in at 10 mL tissue bath with one end attached to the bottom of the bath and the other to a force transducer. A resting tension of 1 gram was placed on the rings.
After equilibration, the rings were exposed to increasing concentrations of phenylephrine (10^−8 to 10^−4 M) and the tension recorded. Baths were then rinsed 3 times with fresh buffer. After washout, 200 μM N′-nitro-L-arginine methyl ester hydrochloride (L-NAME) was added to the tissue bath and equilibrated for 30 minutes. The phenylephrine concentration response curve was then repeated.
Contraction amplitudes at each concentration of phenylephrine were normalized to the maximum phenylephrine-induced contraction before the addition of L-NAME and graphed. The amount of basal NO released was proportional to the degree of separation between the 2 curves before and after L-NAME. Statistical differences were at the p<0.05 level of significance using a repeated measures “Test of Effect Slices (SAS)” analysis of variance.

| Structure (SMILES) | response of vessels to L-NAME after washout | response of the vessels compared among intact, estradiol and TSE-424 treated groups | difference from vehicle treated group (basal NO release, separation of curves before and after L-NAME) |
| --- | --- | --- | --- |
| Cc1c(-c2ccc(O)cc2)n(Cc2ccc(OCCN3CCCCCC3)cc2)c2ccc(O)cc12 [TSE-424, 1-[4-(2-Azepan-1yl-ethoxy)-benzyl]-2-(4-hydroxy-phenyl)-3-methyl-1H-indol-5-ol] | substantial contraction | indistinguishable | significantly different |
| C[C@]12CC[C@@H]3c4ccc(O)cc4CC[C@H]3[C@@H]1CC[C@@H]2O [estradiol, 17-β estradiol] | substantial contraction | indistinguishable | significantly different |
